From PubChem BioAssay (NCI)
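1) Cells in 96-well plates. 2) Compound, 48 h, 5 concentrations. 3) Linear interpolation between surrounding doses. 4) Unreached endpoint = highest concentration. At the TGI there is no net growth.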

How the values were obtained:
Assay in all cases: DTP human tumour cell line panel, 48 h
XF 498 CNS = test system: XF 498 CNS
NCI-H460 lung = test system: NCI-H460 lung
HL-60(TB) leukemia = test system: HL-60(TB) leukemia
NCI-H23 lung = test system: NCI-H23 lung
HOP-18 NSCLC = test system: HOP-18 NSCLC
UACC-62 melanoma = test system: UACC-62 melanoma
SK-OV-3 ovarian = test system: SK-OV-3 ovarian
SK-MEL-5 melanoma = test system: SK-MEL-5 melanoma
SK-MEL-2 melanoma = test system: SK-MEL-2 melanoma
SNB-75 CNS = test system: SNB-75 CNS
MALME-3M melanoma = test system: MALME-3M melanoma
HOP-62 NSCLC = test system: HOP-62 NSCLC
UACC-257 melanoma = test system: UACC-257 melanoma
M14 melanoma = test system: M14 melanoma
A498 renal = test system: A498 renal
SW-620 colon = test system: SW-620 colon
CAKI-1 renal = test system: CAKI-1 renal
HCC-2998 colon = test system: HCC-2998 colon
UO-31 renal = test system: UO-31 renal
HOP-92 NSCLC = test system: HOP-92 NSCLC
NCI-H522 lung = test system: NCI-H522 lung
SF-295 CNS = test system: SF-295 CNS
HT29 colon = test system: HT29 colon
M19-MEL melanoma = test system: M19-MEL melanoma
DLD-1 colon = test system: DLD-1 colon
KM12 colon = test system: KM12 colon
NCI-H226 lung = test system: NCI-H226 lung
COLO 205 colon = test system: COLO 205 colon
SF-539 CNS = test system: SF-539 CNS
HCT-15 colon = test system: HCT-15 colon
OVCAR-4 ovarian = test system: OVCAR-4 ovarian
ACHN renal = test system: ACHN renal
A549 NSCLC = test system: A549 NSCLC
RXF-631 renal = test system: RXF-631 renal
LXFL 529 NSCLC = test system: LXFL 529 NSCLC
KM20L2 colon = test system: KM20L2 colon
786-0 renal = test system: 786-0 renal
K-562 leukemia = test system: K-562 leukemia
RXF 393 renal = test system: RXF 393 renal
SNB-19 CNS = test system: SNB-19 CNS
IGROV1 ovarian = test system: IGROV1 ovarian
EKVX NSCLC = test system: EKVX NSCLC
OVCAR-5 ovarian = test system: OVCAR-5 ovarian
CCRF-CEM leukemia = test system: CCRF-CEM leukemia
SNB-78 CNS = test system: SNB-78 CNS
SN12C renal = test system: SN12C renal
TK-10 renal = test system: TK-10 renal
SF-268 CNS = test system: SF-268 CNS
DMS 273 small cell lung = test system: DMS 273 small cell lung
LOX IMVI melanoma = test system: LOX IMVI melanoma
OVCAR-3 ovarian = test system: OVCAR-3 ovarian
OVCAR-8 ovarian = test system: OVCAR-8 ovarian
U251 CNS = test system: U251 CNS
HCT-116 colon = test system: HCT-116 colon
SK-MEL-28 melanoma = test system: SK-MEL-28 melanoma

Measured: TGI

CC1=C(C(=O)Nc2ccccc2C)C(/C=C/c2ccccc2)C(C(=O)Nc2ccccc2C)=C(C)N1
> 100 µM: all assays above
